Experimental data from paper PMC8621570, “Mechanistic Studies of Antibiotic Adjuvants Reducing Kidney’s Bacterial Loads upon Systemic Monotherapy” (Pharmaceutics, 2021).
≈ marks a conversion by molar mass, not a printed value. Like-named read-outs stand apart in the source and are kept apart here. Where a SMILES comes first, the peptide text is derived from it. [ ]: non-standard residue; d: D form. The star is where a group is joined. Myristoyl = CCCCCCCCCCCCCC(=O)*; 12Ado = NCCCCCCCCCCCC(=O)O; Orn = NCCC[C@H](N)C(=O)O

Assays:
E. coli strain AG100 = experiment: microbe, parasite or virus in culture; assay type: cell-based, Escherichia coli
Procedure: (§1) Bacteria:Escherichia coli strains: 25922 and 35218 (ATCC, Manassas, VA, USA), 14182 (clinical isolate), Ag100 and Ag100A [34] (ΔacrAB) are two K-12 isogenic mutantsand the engineered mutant ML-35p. Additional ESKAPE species tested: Klebsiella pneumoniae strains 1287 and 224 (clinical isolates), Acinetobacter baumannii ATCC strain 19606, Pseudomonas aeruginosa ATCC strains 9027 and 27853. Bacteria were grown in Luria–Bertani (LB) broth (0.5% NaCl, 0.5% yeast extract, 1% tryptone, pH = 7), except for E. coli ML-35p that was grown in tryptic-soy broth.
(§2) Peptide self-assembly was determined by static light scattering measurements as described. Hemolysis was determined by measuring hemoglobin leakage from washed human RBCs, as described. Minimal inhibitory concentration (MIC) was determined using the microdilution assay, as described. Bactericidal kinetics were determined by mixing bacteria with rifampin, OAC, or their combinations, as described. Data were obtained from three independent assays performed in duplicate.
(§3) The wild-type E. coli strain AG100 and its isogenic ΔacrAB mutant AG100A were used to determine the MIC of OACs and of two known acrAB-TolC substrates: the AMP LL-37 and the macrolide antibiotic erythromycin that are normally inefficient against GNB.

[1] = system: E. coli ΔacrAB mutant AG100A; experiment: microbe, parasite or virus in culture; assay type: cell-based, Escherichia coli
Procedure: as §1, §2, §3

[2] = system: extremely resistant GNB strains; experiment: Erythromycin MIC in LB medium against GNB; assay type: cell-based; details: greater than highest tested concentration, read-out: Erythromycin MIC alone
Procedure: (§4) Bacterial sensitization: Sensitization to antibiotics was determined using the checkerboard method in presence of sub-MIC OAC (2.5, 5, and 10 μM), as described. The synergistic effect of the combinations was expressed in terms of the Sensitization Factor (SF), where SF = (MIC antibiotic alone)/(MIC antibiotic upon combination). Data were obtained from three independent assays performed in duplicate.
(§5) Figure 4 Hydrophobicity dependence of antibiotics potentiation by lipopeptide analogs. Sensitization of GNB to rifampin and erythromycin (upper and lower panel, respectively) was assessed by MIC experiments performed in LB medium, in presence or absence of an OAC analog whose A2 position was gradually shortened (from c10 to c6). Pseudomonas aeruginosa 27853 (Pa, blue), Klebsiella pneumoniae 1287 (Kp, green), Escherichia coli 25922 (Ec, red), and Acinetobacter baumannii 19606 (Ab, black).

[3] = Hydrophobicity by reversed phase HPLC elution; assay type: physicochemical; details: % acetonitrile required for elution in reversed phase HPLC, C18 column; rounded to nearest whole number
[4] = Peptide self-assembly (critical aggregation concentration) by static light scattering; assay type: physicochemical; details: light scattering in PBS
Procedure: as §2

[5] = system: washed human erythrocytes; assay type: cell-based; details: red cells of human, 3 h
Procedure: as §2

12 GNB strains [6] = assay type: cell-based; details: OD measurements, mean of 12 GNB strains
Procedure: as §1, §2

E. coli 25922 = assay type: cell-based, Escherichia coli; details: 25922, 24 h
Procedure: Sensitization to plasma components was assessed by mixing bacteria with serial two-fold OAC dilutions in 80% human plasma (Israel Blood Bank) or plasma from the specified species (Technion preclinical research authority or VetSource), as described. Data were obtained from three independent experiments.
Figure 3 Animal plasma antibacterial activities against E. coli 25922. (a) Dose-dependent reduction of colony forming units (CFU) as determined 24 h after exposure to C14(ω5)OOc10O in human plasma (80% final plasma concentration in PBS). Values represent the mean ± SD obtained from three individual plasma donors (mean inoculum was 1.6 ± 0.8 × 10^6 CFU/mL). (b) Time-kill kinetics determined upon E. coli exposure to 0, 2.5, 5, and 10 µM C14(ω5)OOc10O (from top to bottom, respectively). Values represent the mean ± SD obtained from two individual plasma samples, each subjected to two independent assays. Panels (c–f), respectively, show the OAC’s concentration-dependent activities in plasma samples obtained from pig, cat, sheep, and dog. The three dashed horizontal lines respectively represent the average CFU count of the vehicle control (upper line), the inoculum (middle line), and the limit of detection (lower line), i.e., log10 50 CFU/mL = 1.69. Green stars (*) denote lack of detectable CFU.

[7] = % acetonitrile required for elution in reversed phase HPLC, C18 column; rounded to nearest whole number; reference peptide; cited from earlier work
Text: Table 1 Biophysical attributes of relevant lipopeptide analogs. | column: H (%)

[8] = light scattering in PBS; reference peptide; cited from earlier work
Text: Table 1 Biophysical attributes of relevant lipopeptide analogs. | column: CAC (µM)

12 GNB strains [9] = details: OD measurements, mean of 12 GNB strains, reference peptide; cited from earlier work
Text: Table 1 Biophysical attributes of relevant lipopeptide analogs. | column: MIC (µM) / LB ^a Medium

[10] = system: Acinetobacter baumannii 19606; experiment: Sensitization to rifampin, checkerboard method; assay type: cell-based; details: Acinetobacter baumannii, 19606, A. baumannii, LB
Procedure: as §4, §5

Escherichia coli 25922 = experiment: Sensitization to rifampin, checkerboard method; assay type: cell-based; details: Escherichia coli, 25922, E. coli, LB
Procedure: as §4, §5

Klebsiella pneumoniae = experiment: Sensitization to rifampin, checkerboard method; assay type: cell-based; details: Klebsiella pneumoniae, K. pneumoniae, LB
Procedure: as §4, §5

[11] = system: Pseudomonas aeruginosa 27853; experiment: Sensitization to rifampin, checkerboard method; assay type: cell-based; details: Pseudomonas aeruginosa, 27853, P. aeruginosa, LB
Procedure: as §4, §5

P. aeruginosa 27853 = experiment: Excisional skin wound infection model, topical treatment; assay type: in vivo, mouse; details: hypromellose gel 1% (w/v), 4 h treatment, mice n = 3 per group
Procedure: Animals: All animal studies were performed using male ICR mice (25 ± 2 gr). The Technion Animal Care and Use committee approved all procedures, care, and handling of animals. Ethics approval codes: IL0800519, IL0640421, IL0550618, IL1811217.
For efficacy assessments, three infection models were used including one with topical treatment and two with systemic treatment. • Excisional skin wound infection model: mice were anesthetized by intraperitoneal administration of a mixture of ketamine 100 mg/kg and xylazine 5 mg/kg in PBS and their backs shaved with electric clippers. The following day mice were similarly anesthetized and were administrated (S.C) 0.05 mg/kg buprenorphine (for pain relief). A 5 mm diameter piece of skin was removed from the middle of the shaved back, with sterile biopsy punch resulting in a full-thickness injury. A total of 20 µL of a mid-logarithmic culture, containing 5 × 10^6 CFU P. aeruginosa 27853 were applied on the wound. Then, 15 min after inoculation, about 50 µL of hypromellose gel (prepared as described) containing OAC, antibiotic, or their combination were applied on the skin and covered with a piece of medical tape. As a control, the vehicle (drug-free gel) was similarly applied on the skin. After a treatment period of 4 h, about 8 mm diameter of skin surrounding the infected area was removed, suspended in PBS, homogenized, serially diluted 10-fold, and plated for CFU enumeration. The number of viable bacteria was determined after overnight incubation at 37 °C. The lower limit of detection was 50 CFU/wound. • Thigh infection model (TI): mice were inoculated intramuscularly with 1 × 10^6 CFU/mouse of mid-logarithmic E. coli 25922 and treated subcutaneously 1 and 3 h after inoculation. Mice were sacrificed 24 h after infection, their thighs excised, homogenized, serially diluted 10-fold, and plated for CFU enumeration. The number of viable bacteria was determined after overnight incubation at 37 °C. […] The number of viable bacteria was determined after overnight incubation at 37 °C. […]

[12] = no adjuvant, read-out: Rifampin MIC alone
[13] = with C14(ω5)OOc10O, read-out: Rifampin MIC in presence of adjuvant
[14] = with 10 μM C14(ω5)OOc10O, read-out: Rifampin MIC in presence of adjuvant

Row | Structure (SMILES) | H, hydrophobicity [3] [%] | CAC, critical aggregation concentration [4] [µM] | HC50, concentration causing 50% hemolysis compared to water [5] [µM] | MIC, LB medium (12 GNB strains [6]) [µM] | MIC, human plasma (E. coli 25922) [µM] | further results
1 | CC[C@H]1OC(=O)[C@H](C)[C@@H](O[C@H]2C[C@@](C)(OC)[C@@H](O)[C@H](C)O2)[C@H](C)[C@@H](O[C@@H]2O[C@H](C)C[C@H](N(C)C)[C@H]2O)[C@](C)(O)C[C@@H](C)C(=O)[C@H](C)[C@@H](O)[C@]1(C)O [Erythromycin, reference compound] | – | – | – | – | – | MIC (E. coli strain AG100; Escherichia coli, wild-type E. coli AG100): 174 µM; MIC ([1]; Escherichia coli, read-out: MIC, Ag100A): 10.9 µM; MIC [2]: > 512 µg/mL
2 | NCCC[C@H](NC(=O)CCCCCCCCCCCNC(=O)[C@H](CCCN)NC(=O)[C@@H](N)CCCN)C(N)=O [OOc12O] (H-[Orn][Orn][12Ado][Orn]-NH2) | 24 | >100 | >100 | >50 | >20 | –
3 | CCCCCCCCCCCCCC(=O)N[C@@H](CCCN)C(=O)N[C@@H](CCCN)C(=O)NCCCCCCCCCC(=O)N[C@@H](CCCN)C(N)=O [C14OOc10O] | 53 | 45 ± 14 | 28 ± 2 | 12.5 to 25 | 10 to 20 | –
4 | CCCCC=CCCCCCCCC(=O)N[C@@H](CCCN)C(=O)N[C@@H](CCCN)C(=O)NCCCCCCCC(=O)N[C@@H](CCCN)C(N)=O [C14(ω5)OOc8O] | 48 | >100 | >100 | >50 | 2.5 to 5 | –
5 | CCCCCCCCCCCCCC(=O)N[C@@H](CCCCN)C(=O)N[C@@H](CCCCN)C(=O)NCCCCCCCCCCCC(=O)N[C@@H](CCCCN)C(N)=O [C14KKc12K] (Myristoyl-KK[12Ado]K-NH2) | – | – | 12 ± 1 | – | >20 | H, hydrophobicity [7]: 55%; CAC, critical aggregation concentration [8]: 20 ± 5 µM; MIC, LB medium (12 GNB strains [9]): 3 to 6 µM
6 | CCCCC=CCCCCCCCC(=O)N[C@@H](CCCN)C(=O)N[C@@H](CCCN)C(=O)NCCCCCC(=O)N[C@@H](CCCN)C(N)=O [C14(ω5)OOc6O] | 47 | >100 | >100 | >50 | 5 (≈ 3.4 µg/mL) | –
7 | CCCCCCCCCCCCCC(=O)N[C@@H](CCCN)C(=O)N[C@@H](CCCN)C(=O)NCCCCCCCCCCCC(=O)N[C@@H](CCCN)C(N)=O [C14OOc12O] (Myristoyl-[Orn][Orn][12Ado][Orn]-NH2) | 55 | 15 ± 1 | 14 ± 4 | 3 to 6 | >20 | MIC (E. coli strain AG100; strain AG100): 3.1 µM; MIC, Ag100A ([1]; isogenic ΔacrAB mutant AG100A): 3.1 µM
8 | CO[C@H]1/C=C/O[C@@]2(C)Oc3c(C)c(O)c4c(O)c(c(/C=N/N5CCN(C)CC5)c(O)c4c3C2=O)NC(=O)/C(C)=C\C=C\[C@H](C)[C@H](O)[C@@H](C)[C@@H](O)[C@@H](C)[C@H](OC(C)=O)[C@@H]1C [rifampin] | – | – | – | – | – | MIC [10, 12]: 2 µg/mL; MIC [10, 13]: 0.0005 µg/mL; MIC (Escherichia coli 25922; [12]): 8 µg/mL; MIC (Escherichia coli 25922; [14]): 0.00025 µg/mL; MIC (Klebsiella pneumoniae; [12]): 32 µg/mL; MIC (Klebsiella pneumoniae; [13]): 0.0005 µg/mL; MIC [11, 12]: 32 µg/mL; MIC [11, 14]: 0.001 µg/mL; Reduction of CFU count (P. aeruginosa 27853): 1.7 log10 units
